Results as given in PubChem BioAssay AID238 (DTP/NCI, 2004).
Values joined by “and” are separate entries in the source; they are usually repeats but may differ in a detail not shown here. Equal entries are not always repeated. Toxic doses and inconclusive results are not listed.

Test system: CAF1 mice, leiomyosarcoma No.2 ip, survival T/C%
Experiment: NCI In Vivo Anticancer Drug Screen. Data for tumor model Leiomyosarcoma (No. 2) (intraperitoneal) in CAF1 mice
Details: endpoint: mean survival time, schedule: Q01DX010 (ip), higher = longer survival
Procedure: The antitumor activity of compounds was measured in mice bearing transplantable tumors. Survival or tumor size were measured and the results are expressed as the measurement made in the treated group (T) divided by the measurement made in the vehicle treated control group (C). The tumor model used in this assay is Leiomyosarcoma (No. 2) (intraperitoneal) in CAF1 mice

[1] = dose: 6.0 mg/kg/injection, vehicle: saline
[2] = dose: 2.5 mg/kg/injection, vehicle: saline
[3] = dose: 5.0 mg/kg/injection, vehicle: saline
[4] = dose: 10.0 mg/kg/injection, vehicle: saline
[5] = dose: 20.0 mg/kg/injection, vehicle: saline
[6] = dose: 80.0 mg/kg/injection, vehicle: saline
[7] = dose: 8.0 mg/kg/injection, vehicle: saline
[8] = dose: 50.0 mg/kg/injection, vehicle: saline
[9] = dose: 6.25 mg/kg/injection, vehicle: saline
[10] = dose: 12.5 mg/kg/injection, vehicle: saline
[11] = dose: 25.0 mg/kg/injection, vehicle: saline

Question: Which T/C (dose: 1.5 mg/kg/injection, vehicle: saline) does the source give for Nc1ncnc2[nH]ncc12 here?
Answer: Its T/C is 107 % of control and 112 % of control.

Question: And the T/C (dose: 3.0 mg/kg/injection, vehicle: saline)?
Answer: The T/C was 103 % of control and 108 % of control.

Question: And the T/C [1]?
Answer: The T/C was 96 % of control and 100 % of control.

Question: What about the T/C (dose: 12.0 mg/kg/injection, vehicle: saline) of the same compound?
Answer: Its T/C is 88 % of control and 95 % of control.

Question: For N=C(N)SCc1c2ccccc2c(CSC(=N)N)c2ccccc12, which T/C [2] is on record?
Answer: The T/C was 172 % of control.

Question: And the T/C [3]?
Answer: Its T/C is 186 % of control and 209 % of control.

Question: What about the T/C [4] of the same compound?
Answer: The T/C was 177 % of control and 204 % of control.

Question: What about the T/C [5] of the same compound?
Answer: Its T/C is 109 % of control and 209 % of control.

Question: What about the T/C (dose: 40.0 mg/kg/injection, vehicle: saline) of the same compound?
Answer: The T/C was 104 % of control.

Question: Which T/C [2] does the source give for N#[N+]c1cnc([O-])[nH]c1=O here?
Answer: The T/C was 213 % of control.

Question: And the T/C [4]?
Answer: Its T/C is 93 % of control.

Question: What does the source list for CN(C)c1ccc(Nc2c3ccccc3nc3ccccc23)cc1?
Answer: T/C (dose: 36.0 mg/kg/injection, vehicle: saline): 121 % of control; T/C (dose: 54.0 mg/kg/injection, vehicle: saline): 121 % of control; T/C [6]: 300 % of control; T/C (dose: 120.0 mg/kg/injection, vehicle: saline): 300 % of control

Question: What does the source list for Nc1nc(=S)c2ncn(C3OC(CO)C(O)C3O)c2[nH]1 (stereo not given)?
Answer: T/C (dose: 1.0 mg/kg/injection, vehicle: saline): 258 % of control; T/C (dose: 2.0 mg/kg/injection, vehicle: saline): 197 % of control and 204 % of control; T/C (dose: 4.0 mg/kg/injection, vehicle: saline): 118 % of control; T/C [7]: 90 % of control

Question: Which T/C [8] does the source give for C#CCN(C)Cc1ccccc1 here?
Answer: The T/C was 102 % of control.

Question: What about the T/C (dose: 100.0 mg/kg/injection, vehicle: saline) of the same compound?
Answer: The T/C was 88 % of control.

Question: And the T/C (dose: 200.0 mg/kg/injection, vehicle: saline)?
Answer: Its T/C is 91 % of control.

Question: How did the T/C [9] turn out when O=C(O)CCCc1ccc(N(CCCl)CCCl)cc1 was run?
Answer: The T/C was 153 % of control and 279 % of control.

Question: What about the T/C [10] of the same compound?
Answer: The T/C was 203 % of control and 225 % of control.

Question: Which results are given for OCC1OC(n2cnc3c(=S)nc[nH]c32)C(O)C1O (stereo not given)?
Answer: T/C [5]: 161 % of control and 248 % of control; T/C [6]: 153 % of control; T/C (dose: 160.0 mg/kg/injection, vehicle: saline): 87 % of control

Question: Which T/C (dose: 25.0 mg/kg/injection, vehicle: alkali diluted with saline) does the source give for Nc1nc2n[nH]nc2c(=O)[nH]1 here?
Answer: Its T/C is 188 % of control and 225 % of control.

Question: What about the T/C [11] of the same compound?
Answer: Its T/C is 253 % of control.

Question: And the T/C (dose: 50.0 mg/kg/injection, vehicle: alkali diluted with saline)?
Answer: The T/C was 180 % of control and 250 % of control.

Question: What about the T/C [8] of the same compound?
Answer: Its T/C is 186 % of control.

Question: What about the T/C (dose: 100.0 mg/kg/injection, vehicle: alkali diluted with saline) of the same compound?
Answer: Its T/C is 190 % of control and 246 % of control.

Question: What about the T/C (dose: 200.0 mg/kg/injection, vehicle: alkali diluted with saline) of the same compound?
Answer: The T/C was 185 % of control.

Question: Which results are given for O=C(Nc1ccc(C2=NCCN2)cc1)c1ccc(C(=O)Nc2ccc(C3=NCCN3)cc2)c([N+](=O)[O-])c1?
Answer: T/C [1]: 121 % of control; T/C [7]: 113 % of control

Question: What does the source list for O=c1[nH]c(=O)n(C2CC(O)C(CO)O2)cc1F (stereo not given)?
Answer: T/C [3]: 118 % of control; T/C [4]: 118 % of control

Question: With O=NN(CCCl)C(=O)NCCCl as the compound, how does the T/C (dose: 3.13 mg/kg/injection, vehicle: saline) read?
Answer: Its T/C is 300 % of control.

Question: What about the T/C [9] of the same compound?
Answer: Its T/C is 258 % of control and 300 % of control.

Question: And the T/C [10]?
Answer: The T/C was 115 % of control and 120 % of control.

Question: With CS(=O)(=O)OCCCCOS(C)(=O)=O as the compound, how does the T/C [9] read?
Answer: Its T/C is 100 % of control.

Question: And the T/C [10]?
Answer: Its T/C is 96 % of control and 123 % of control.

Question: And the T/C [11]?
Answer: Its T/C is 103 % of control.

Question: And the T/C [8]?
Answer: Its T/C is 86 % of control.

Question: What does the source list for O[C@H](CN1CC1)[C@@H](O)CN1CC1?
Answer: T/C (dose: 125.0 micrograms/kg/injection, vehicle: saline): 150 % of control; T/C (dose: 250.0 micrograms/kg/injection, vehicle: saline): 179 % of control; T/C (dose: 500.0 micrograms/kg/injection, vehicle: saline): 204 % of control

Question: Which results are given for S=P(N1CCOCC1)(N1CC1)N1CC1?
Answer: T/C [2]: 96 % of control and 104 % of control; T/C [3]: 116 % of control and 117 % of control; T/C [4]: 153 % of control and 179 % of control; T/C [5]: 164 % of control

Question: What does the source list for C1CN1c1nc(N2CC2)nc(N2CC2)n1?
Answer: T/C (dose: 0.13 mg/kg/injection, vehicle: saline): 117 % of control; T/C (dose: 0.25 mg/kg/injection, vehicle: saline): 121 % of control; T/C (dose: 0.5 mg/kg/injection, vehicle: saline): 196 % of control and 233 % of control

Question: With O=C(Nc1ccc(C2=NCCN2)cc1)c1cccc(C(=O)Nc2ccc(C3=NCCN3)cc2)c1 as the compound, how does the T/C [7] read?
Answer: The T/C was 260 % of control and 300 % of control.

Question: What about the T/C (dose: 16.0 mg/kg/injection, vehicle: saline) of the same compound?
Answer: Its T/C is 257 % of control and 260 % of control.

Question: Which results are given for CCCCNc1ncnc2c1cnn2C?
Answer: T/C (dose: 15.6 mg/kg/injection, vehicle: saline): 92 % of control; T/C (dose: 31.3 mg/kg/injection, vehicle: saline): 89 % of control and 103 % of control; T/C (dose: 62.5 mg/kg/injection, vehicle: saline): 90 % of control and 112 % of control

Question: For CN(C)c1nc(N(C)C)nc(N(C)C)n1, which T/C (dose: 18.8 mg/kg/injection, vehicle: saline) is on record?
Answer: Its T/C is 100 % of control and 108 % of control.

Question: What about the T/C (dose: 37.5 mg/kg/injection, vehicle: saline) of the same compound?
Answer: Its T/C is 89 % of control and 112 % of control.

Question: And the T/C (dose: 75.0 mg/kg/injection, vehicle: saline)?
Answer: The T/C was 96 % of control and 104 % of control.

Question: And the T/C (dose: 150.0 mg/kg/injection, vehicle: saline)?
Answer: Its T/C is 110 % of control.

Question: What does the source list for Nc1nc(=S)c2[nH]cnc2[nH]1?
Answer: T/C (dose: 1.25 mg/kg/injection, vehicle: saline): 300 % of control; T/C [3]: 93 % of control
